Measurements from patent publication US20250340552A1, “COMPOUNDS, COMPOSITIONS AND METHODS OF TREATING DISORDERS” (HOTSPOT THERAPEUTICS, INC., priority 2022, published 2025).
Read-outs that look alike come from different tables or passages of the source.

Biological target: T1, Cbl-B (Homo sapiens, UniProt Q13191)
T1 construct: MSD-Based Assay for Degradation of Cbl-B in THP-1 Cells; endogenous in cells; host or cells: THP-1 (title) / Jurkat (protocol text)
Assay: MSD-based assay for degradation of Cbl-B in THP-1 cells
Type: cell-based
Method: MSD-Based Assay for Degradation of Cbl-B in THP-1 Cells
Assay plates were then shaken at 600 rpm for 5 minutes, followed by incubation for 24 hours in the 37° C. TC incubator. […] Cell debris was then spun down at maximum speed (about 3200 g) for 30 min and lysates frozen in the −80° C. fridge. Meanwhile, MSD plates (L15XA-3) were coated overnight at 4° C. with 1 ug/mL capture antibody (Anti-Cbl-B antibody, 246C5a and Mouse mAB, ab54362). […] Blocking buffer was 3% Blocker A (MSD, R93BA-4) in TBST. Plates were washed 3× with 150 ul/well of 1×TBST and sample lysates (70 ul/well) then added, followed by shaking for 1 hr at RT, 600 rpm. […] Plates were again washed 3× with 150 ul/well of 1×TBST, followed by addition of Secondary Detection antibody, SULFO-TAG anti-species antibody (Anti Rabbit Antibody (R32AB-5) MSD, R32AB-1) at a final concentration of 1 ug/ml and 25 uL/well, followed by shaking for 1 hr at RT, 600 rpm. Plates were again washed 3× with 150 ul/well of 1×TBST, followed by addition of 1×MSD reading buffer (MSD, R92TC-2), 150 ul/well, diluted from 4× with water.
Compound Dmax were binned into A through D as follows: A indicates >70%, B indicates 50-70%, C indicates 30-50%, D indicates <30%.

[1] = Cbl-B degradation, Jurkat cells seeded (heading: THP-1 cells), 24 hours incubation, MSD readout
[2] = Cbl-B degradation, Jurkat cells seeded (heading: THP-1 cells), 24 hours incubation, MSD readout, read-out: Dmax

T1 sequence (Q13191 whole entry): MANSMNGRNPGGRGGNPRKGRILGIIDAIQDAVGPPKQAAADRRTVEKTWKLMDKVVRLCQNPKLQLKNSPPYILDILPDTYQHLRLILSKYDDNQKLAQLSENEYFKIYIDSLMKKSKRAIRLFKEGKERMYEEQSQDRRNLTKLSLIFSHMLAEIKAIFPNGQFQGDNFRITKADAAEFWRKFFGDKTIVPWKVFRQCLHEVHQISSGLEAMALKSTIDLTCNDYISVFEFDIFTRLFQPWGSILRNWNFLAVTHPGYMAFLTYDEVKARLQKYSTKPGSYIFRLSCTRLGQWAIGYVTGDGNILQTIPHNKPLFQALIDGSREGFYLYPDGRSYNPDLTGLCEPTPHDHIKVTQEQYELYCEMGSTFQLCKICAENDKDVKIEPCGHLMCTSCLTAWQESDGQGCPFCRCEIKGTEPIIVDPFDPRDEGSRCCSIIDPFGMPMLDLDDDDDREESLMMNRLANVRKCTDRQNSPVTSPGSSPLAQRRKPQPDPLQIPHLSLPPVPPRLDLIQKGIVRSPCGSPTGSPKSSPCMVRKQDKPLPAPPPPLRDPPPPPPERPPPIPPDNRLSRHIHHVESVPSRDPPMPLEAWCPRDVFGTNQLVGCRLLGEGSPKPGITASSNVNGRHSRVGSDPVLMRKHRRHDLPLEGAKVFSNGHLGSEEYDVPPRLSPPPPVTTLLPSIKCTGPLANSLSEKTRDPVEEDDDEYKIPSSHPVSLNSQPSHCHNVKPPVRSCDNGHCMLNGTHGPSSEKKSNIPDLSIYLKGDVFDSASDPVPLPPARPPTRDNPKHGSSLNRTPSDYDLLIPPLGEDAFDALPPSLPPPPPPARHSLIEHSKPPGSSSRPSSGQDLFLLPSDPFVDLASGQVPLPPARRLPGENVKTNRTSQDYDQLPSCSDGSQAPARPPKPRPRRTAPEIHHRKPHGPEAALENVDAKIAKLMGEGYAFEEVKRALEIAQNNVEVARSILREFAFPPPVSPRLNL

| DC50 [1] | Dmax [2] | Structure (SMILES) | Dmax (THP-1) |
| --- | --- | --- | --- |
| > 10 µM | < 30% | Cn1cnnc1[C@@H](c1cccc(-n2cc3c(C(F)(F)F)cc(CN4CCC(OCCOCc5ccc(COCCNc6cccc7c6C(=O)N(C6CCC(=O)NC6=O)C7=O)cc5)CC4)cn3c2=O)c1)C1CCC1 (single isomer, unassigned) [Compound 5] |  |
| 0.03 to 0.3 µM | 50 to 70% | Cn1cnnc1[C@H](c1cccc(-n2cc3c(C(F)(F)F)cc(CN4CCC(OCCOCc5ccc(COCCNc6cccc7c6C(=O)N(C6CCC(=O)NC6=O)C7=O)cc5)CC4)cn3c2=O)c1)C1CCC1 (single isomer, unassigned) [Compound 6] |  |
| 1 to 10 µM | < 30% | Cn1cnnc1[C@@H](c1cccc(-n2cc3c(C(F)(F)F)cc(CN4CCC(N5CCN(c6ccc7c(c6)CN([C@H]6CCC(=O)NC6=O)C7=O)CC5)CC4)cn3c2=O)c1)C1CCC1 (single isomer, unassigned) [Compound 41] |  |
| 0.3 to 1 µM | 50 to 70% | Cn1cnnc1CC1(c2cccc(-n3cc4c(C(F)(F)F)cc(CN5CCC(OCCN6CCC(CN7CCN(c8ccc9c(c8)CN([C@@H]8CCC(=O)NC8=O)C9=O)CC7)CC6)CC5)cn4c3=O)c2)COC1 (single isomer, unassigned) [Compound 47] |  |
| 0.3 to 1 µM | 30 to 50% | Cn1cnnc1[C@@H](c1cccc(-n2cc3c(C(F)(F)F)cc(CN4CCC(OCCN5CCC(CN6CCN(c7ccc8c(c7)CN([C@@H]7CCC(=O)NC7=O)C8=O)CC6)CC5)CC4)cn3c2=O)c1)C1CCC1 (single isomer, unassigned) [Compound 48] |  |
| 0.03 to 0.3 µM | > 70% | Cn1cnnc1CC1(c2cccc(-n3cc4c(C(F)(F)F)cc(CN5CCC[C@@H](OCCN6CCC(CN7CCN(c8ccc9c(c8)CN([C@H]8CCC(=O)NC8=O)C9=O)CC7)CC6)C5)cn4c3=O)c2)COC1 (single isomer, unassigned) [Compound 50] |  |
| 0.3 to 1 µM | 50 to 70% | Cn1cnnc1CC1(c2cccc(-n3cc4c(C(F)(F)F)cc(CN5CCC[C@H](OCCN6CCC(CN7CCN(c8ccc9c(c8)CN([C@@H]8CCC(=O)NC8=O)C9=O)CC7)CC6)C5)cn4c3=O)c2)COC1 (single isomer, unassigned) [Compound 51] |  |
| 0.03 to 0.3 µM | > 70% | Cn1cnnc1CC1(c2cccc(-n3cc4c(C(F)(F)F)cc(CN5CCC[C@H](OCCN6CCC(CN7CCN(c8ccc9c(c8)CN([C@H]8CCC(=O)NC8=O)C9=O)CC7)CC6)C5)cn4c3=O)c2)COC1 (single isomer, unassigned) [Compound 52] |  |
| 0.03 to 0.3 µM | > 70% | Cn1cnnc1[C@@H](c1cccc(-n2cc3c(C(F)(F)F)cc(CN4CCC[C@@H](OCCN5CCC(CN6CCN(c7ccc8c(c7)CN([C@H]7CCC(=O)NC7=O)C8=O)CC6)CC5)C4)cn3c2=O)c1)C1CCC1 (single isomer, unassigned) [Compound 54] |  |
| < 0.03 µM | > 70% | Cn1cnnc1[C@@H](c1cccc(-n2cc3c(C(F)(F)F)cc(CN4CCN(CCN5CCC(CN6CCN(c7ccc8c(c7)CN([C@H]7CCC(=O)NC7=O)C8=O)CC6)CC5)CC4)cn3c2=O)c1)C1CCC1 (single isomer, unassigned) [Compound 64] |  |
| > 10 µM | < 30% | Cn1cnnc1CC1(c2cccc(-n3cc4c(C(F)(F)F)cc(CN5CCC(OCCCN6CCN(c7ccc8c(c7)CN([C@H]7CCC(=O)NC7=O)C8=O)CC6)CC5)cn4c3=O)c2)COC1 (single isomer, unassigned) [Compound 68] |  |
| > 10 µM | 30 to 50% | Cn1cnnc1[C@@H](c1cccc(-n2cc3c(C(F)(F)F)cc(CN4CCC(OCCCN5CCN(c6ccc7c(c6)CN([C@H]6CCC(=O)NC6=O)C7=O)CC5)CC4)cn3c2=O)c1)C1CCC1 (single isomer, unassigned) [Compound 72] |  |
| < 0.03 µM | 50 to 70% | Cn1cnnc1CC1(c2cccc(-n3cc4c(C(F)(F)F)cc(CN5CCC(OCCN6CCN(CC7CCN(c8ccc9c(c8)CN([C@H]8CCC(=O)NC8=O)C9=O)CC7)CC6)CC5)cn4c3=O)c2)COC1 (single isomer, unassigned) [Compound 78] |  |
| < 0.03 µM | 50 to 70% | Cn1cnnc1[C@@H](c1cccc(-n2cc3c(C(F)(F)F)cc(CN4CCC(OCCN5CCN(CC6CCN(c7ccc8c(c7)CN([C@H]7CCC(=O)NC7=O)C8=O)CC6)CC5)CC4)cn3c2=O)c1)C1CCC1 (single isomer, unassigned) [Compound 80] |  |
| > 10 µM |  | Cn1cnnc1[C@@H](c1cccc(-n2cc3c(C(F)(F)F)cc(CN4CCC[C@H](OCc5ccc(CN6CCN(c7ccc8c(c7)CN([C@@H]7CCC(=O)NC7=O)C8=O)CC6)cc5)C4)cn3c2=O)c1)C1CCC1 (single isomer, unassigned) [Compound 81] |  |
| 0.03 to 0.3 µM | 30 to 50% | Cn1cnnc1CC1(c2cccc(-n3cc4c(C(F)(F)F)cc(CN5CCC[C@H](OCc6ccc(CN7CCN(c8ccc9c(c8)CN([C@H]8CCC(=O)NC8=O)C9=O)CC7)cc6)C5)cn4c3=O)c2)COC1 (single isomer, unassigned) [Compound 84] |  |
| > 10 µM | 30 to 50% | Cn1cnnc1[C@@H](c1cccc(-n2cc3c(C(F)(F)F)cc(CN4CCC(CN5CCN(c6ccc7c(c6)CN([C@@H]6CCC(=O)NC6=O)C7=O)CC5)CC4)cn3c2=O)c1)C1CCC1 (single isomer, unassigned) [Compound 85] |  |
| 1 to 10 µM | 30 to 50% | Cn1cnnc1[C@@H](c1cccc(-n2cc3c(C(F)(F)F)cc(CN4CCC(CN5CCN(c6ccc7c(c6)CN([C@H]6CCC(=O)NC6=O)C7=O)CC5)CC4)cn3c2=O)c1)C1CCC1 (single isomer, unassigned) [Compound 86] |  |
| < 0.03 µM | > 70% | Cn1cnnc1[C@@H](c1cccc(-n2cc3c(C(F)(F)F)cc(CN4CCC(OCCOCc5ccc(CN6CCN(c7ccc8c(c7)CN([C@H]7CCC(=O)NC7=O)C8=O)CC6)cc5)CC4)cn3c2=O)c1)C1CCC1 (single isomer, unassigned) [Compound 88] |  |

| Structure (SMILES) | DC50 [1] | Dmax [2] | Dmax (THP-1) |
| --- | --- | --- | --- |
| Cn1cnnc1[C@@H](c1cccc(-n2cc3c(C(F)(F)F)cc(CN4CCC(N5CCN(c6ccc7c(c6)CN([C@@H]6CCC(=O)NC6=O)C7=O)CC5)CC4)cn3c2=O)c1)C1CCC1 (single isomer, unassigned) [Compound 40] | 1 to 10 µM |  | < 30% |
| Cn1cnnc1CC1(c2cccc(-n3cc4c(C(F)(F)F)cc(CN5CCC[C@@H](OCCN6CCC(CN7CCN(c8ccc9c(c8)CN([C@@H]8CCC(=O)NC8=O)C9=O)CC7)CC6)C5)cn4c3=O)c2)COC1 (single isomer, unassigned) [Compound 49] | 0.3 to 1 µM | 50 to 70% |  |
| Cn1cnnc1[C@@H](c1cccc(-n2cc3c(C(F)(F)F)cc(CN4CCC[C@@H](OCCN5CCC(CN6CCN(c7ccc8c(c7)CN([C@@H]7CCC(=O)NC7=O)C8=O)CC6)CC5)C4)cn3c2=O)c1)C1CCC1 (single isomer, unassigned) [Compound 53] | 1 to 10 µM |  | 50 to 70% |
| Cn1cnnc1CC1(c2cccc(-n3cc4c(C(F)(F)F)cc(CN5CCN(CCN6CCC(CN7CCN(c8ccc9c(c8)CN([C@@H]8CCC(=O)NC8=O)C9=O)CC7)CC6)CC5)cn4c3=O)c2)COC1 (single isomer, unassigned) [Compound 61] | 0.03 to 0.3 µM |  | 50 to 70% |
| Cn1cnnc1CC1(c2cccc(-n3cc4c(C(F)(F)F)cc(CN5CCC(OCCCN6CCN(c7ccc8c(c7)CN([C@@H]7CCC(=O)NC7=O)C8=O)CC6)CC5)cn4c3=O)c2)COC1 (single isomer, unassigned) [Compound 67] | > 10 µM |  | < 30% |
| Cn1cnnc1[C@@H](c1cccc(-n2cc3c(C(F)(F)F)cc(CN4CCC(OCCCN5CCN(c6ccc7c(c6)CN([C@@H]6CCC(=O)NC6=O)C7=O)CC5)CC4)cn3c2=O)c1)C1CCC1 (single isomer, unassigned) [Compound 71] | > 10 µM | < 30% |  |
| Cn1cnnc1CC1(c2cccc(-n3cc4c(C(F)(F)F)cc(CN5CCC(OCCN6CCN(CC7CCN(c8ccc9c(c8)CN([C@@H]8CCC(=O)NC8=O)C9=O)CC7)CC6)CC5)cn4c3=O)c2)COC1 (single isomer, unassigned) [Compound 77] | 0.3 to 1 µM |  | 30 to 50% |
| Cn1cnnc1[C@@H](c1cccc(-n2cc3c(C(F)(F)F)cc(CN4CCC(OCCN5CCN(CC6CCN(c7ccc8c(c7)CN([C@@H]7CCC(=O)NC7=O)C8=O)CC6)CC5)CC4)cn3c2=O)c1)C1CCC1 (single isomer, unassigned) [Compound 79] | 1 to 10 µM | 30 to 50% |  |
| Cn1cnnc1CC1(c2cccc(-n3cc4c(C(F)(F)F)cc(CN5CCC[C@H](OCc6ccc(CN7CCN(c8ccc9c(c8)CN([C@@H]8CCC(=O)NC8=O)C9=O)CC7)cc6)C5)cn4c3=O)c2)COC1 (single isomer, unassigned) [Compound 83] | > 10 µM | < 30% |  |
| Cn1cnnc1[C@@H](c1cccc(-n2cc3c(C(F)(F)F)cc(CN4CCC(OCCOCc5ccc(CN6CCN(c7ccc8c(c7)CN([C@@H]7CCC(=O)NC7=O)C8=O)CC6)cc5)CC4)cn3c2=O)c1)C1CCC1 (single isomer, unassigned) [Compound 87] | 0.3 to 1 µM | 30 to 50% |  |
